What is called half-life is the time in which the quantity being followed falls by half.

Structures are written as SMILES.

Data set [1] in a line: Half life of the compound.
Data set [2] relates to Solanum lycopersicum. Put plainly: Phytotoxicity in Solanum lycopersicum (tomato) plant in fumigated soil assessed as plant vigour at 2.28 kg/ha after 134 days (reference value: 82%). In kind it is organism-based. Conditions: in vivo, other, 3216 h.
The test system of data set [3] is Solanum lycopersicum. Description: Phytotoxicity in Solanum lycopersicum (tomato) plant assessed as plant vigour at 1.14 kg/ha after 134 days (reference value: 82%). In kind it is organism-based. Conditions: in vivo, 3216 h.
The subject of data set [4] is Solanum lycopersicum. Description: Phytotoxicity in Solanum lycopersicum (tomato) plant in non-fumigated soil assessed as decrease in total fruit yield at 1.14 to 2.28 kg/ha after 174 days relative to untreated control. In kind it is organism-based. Also noted: scale not given: the % may be the effect or the level left. Particulars: in vivo, other, 4176 h.

In turn, `O=C(O)COc1ccc(Cl)cc1Cl` [2,4-DICHLOROPHENOXYACETIC ACID] gave a half-life in data set [1] of 10 days. The Activity in data set [2] came to 80%; in data set [3], 83%; in data set [4], 9%.

Take `COc1c(Cl)ccc(Cl)c1C(=O)O` [3,6 DICHLOROMETHOXYBENZOIC ACID]: the half-life in data set [1] is 14 days.

(Values after ChEMBL document CHEMBL3044656, “Influence of soil fumigation on 2,4-D and dicamba carryover in fresh market tomato” (Crop Prot, 2006).)
